The target in one experiment is T1, FGFR3 (Homo sapiens, UniProt P22607).
T1 construct: purchased Upstate
In words: FGFR3 in vitro kinase inhibitory activity assay (TRF). The class given is biochemical. Conditions: 8 μM ATP, 3 hours; read-out: FGFR3 IC50(μM) or % I. On the procedure:
(§1) FGFR3, VEGFR2 and PDGFR in vitro Kinase Inhibitory Activity Assays
(§2) Enzymes (from Upstate), prepared at 2× final concentration, were incubated with test compounds, biotinylated Flt3 substrate (biotin-VASSDNEYFYVDF) (Cell Signalling Technology Inc.) and ATP in the appropriate assay buffer (Table 1). The reaction was allowed to proceed for 3 hours (FGFR3), 1 hour (VEGFR2, PDGFR-beta) at room temperature on a plate shaker at 700 rpm before being stopped with 35 mM EDTA, pH 8 (FGFR3, VEGFR2) or 55 mM EDTA, pH 8 (PDGFR-beta). 5× detection mix (50 mM HEPES pH 7.5, 0.1% BSA, 11.34 nM Eu-anti-pY (PY20) (PerkinElmer) 74 nM SA-XL665 (Cisbio) for FGFR3, 50 mM HEPES, pH 7.5, 0.1% BSA, 11.34 nM Eu-anti-pY (PY20), 187.5 nM SA-XL665 for VEGFR2 and 50 mM HEPES, pH 7.5, 0.1% BSA, 11.34 nM Eu-anti-pY (PT66) (PerkinElmer), 375 nM SA-XL665 (Cisbio) for PDGFR-beta) was then added to each well and the plate sealed and incubated at room temperature for one hour on a plate shaker at 700 rpm. The plate was then read on a Packard Fusion plate reader or a BMG Pherastar both in TRF mode.

Another experiment deals with T2, VEGFR2 (Homo sapiens, UniProt P35968).
T2 construct: purchased Upstate
Briefly: VEGFR2 in vitro kinase inhibitory activity assay (TRF). In kind it is biochemical. Conditions: read-out: VEGFR2 IC50(μM) or % I; for IC50: 0.5 μM ATP, 1 hour. On the procedure:
as §1, §2

Experiment [1] relates to parental wild-type Ba/F3 cells. Briefly: Ba/F3 (WT) cell proliferation assay (Alamar Blue). The class given is cell-based. Conditions: BaF3, 72 hours, read-out: BaF3 WT prolif; for IC50: with mouse IL-3. On the procedure: (§3) Ba/F3-TEL-FGFR3 & Ba/F3 (WT) Cell Proliferation Assays
(§4) Stably transfected Ba/F3-TEL-FGFR3 cells were plated out into black 96-well tissue culture plates with clear bottoms in RPMI medium containing 10% FBS and 0.25 mg/ml G418 at a density of 5×10^3 cells/well (200 μl per well). The parental wild-type Ba/F3 cells (DSMZ no.: ACC 300) were plated out into black 96-well tissue culture plates with clear bottoms in RPMI medium containing 10% FBS and 2 ng/ml mouse IL-3 (R&D Systems) at a density of 2.5×10^3 cells/well (200 μl per well). Plates were placed in an incubator overnight before adding the compounds the following day. Dilutions of compounds were made in DMSO starting at 10 mM and were diluted into the wells to give a final DMSO concentration of 0.1% in assay. Compounds were left on the cells for 72 hours before the plates were removed from the incubator and 20 μl of Alamar Blue™ (Biosource) was added to each well. Plates were placed in the incubator for 4-6 hours before reading plates at 535 nm (excitation)/590 nm (emission) on a Fusion plate reader (Packard). Where inhibition is high an IC50 can be determined.
(Resazurin is reduced to fluorescent resorufin, in cell work by metabolically active cells.)

A further experiment concerns the target T3, Ba/F3-TEL-FGFR3 cells (Homo sapiens, UniProt P22607).
T3 construct: fused on or other part: P41212 (Transcription factor ETV6)
Briefly: Ba/F3-TEL-FGFR3 cell proliferation assay (Alamar Blue). In kind it is cell-based. Particulars: 72 hours; read-out: BaF3-TEL-FGFR3 prolif. On the procedure: as §3, §4

T3 sequence (P22607 whole entry, change not shown, the tested form may be a part): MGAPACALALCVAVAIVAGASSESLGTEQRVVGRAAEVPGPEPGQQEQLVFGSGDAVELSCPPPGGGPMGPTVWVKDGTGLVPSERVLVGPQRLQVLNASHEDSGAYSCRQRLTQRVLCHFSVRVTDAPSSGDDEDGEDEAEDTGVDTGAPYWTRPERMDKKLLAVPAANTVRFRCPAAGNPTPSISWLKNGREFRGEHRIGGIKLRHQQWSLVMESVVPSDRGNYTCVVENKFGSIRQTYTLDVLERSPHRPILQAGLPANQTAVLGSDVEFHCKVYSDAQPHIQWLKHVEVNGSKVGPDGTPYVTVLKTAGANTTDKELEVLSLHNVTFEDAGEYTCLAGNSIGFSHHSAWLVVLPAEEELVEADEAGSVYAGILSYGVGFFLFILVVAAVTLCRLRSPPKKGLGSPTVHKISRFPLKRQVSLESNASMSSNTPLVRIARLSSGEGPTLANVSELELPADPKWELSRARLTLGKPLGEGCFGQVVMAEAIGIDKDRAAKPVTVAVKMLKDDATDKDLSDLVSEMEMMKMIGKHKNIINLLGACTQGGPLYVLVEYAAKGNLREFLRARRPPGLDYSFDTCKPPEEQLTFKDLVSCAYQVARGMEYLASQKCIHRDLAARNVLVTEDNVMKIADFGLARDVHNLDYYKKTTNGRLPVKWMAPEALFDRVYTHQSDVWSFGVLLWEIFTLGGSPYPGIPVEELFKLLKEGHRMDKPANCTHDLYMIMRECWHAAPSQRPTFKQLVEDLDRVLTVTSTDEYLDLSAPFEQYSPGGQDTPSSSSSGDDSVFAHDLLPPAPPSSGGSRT
T1 sequence (P22607 23-806): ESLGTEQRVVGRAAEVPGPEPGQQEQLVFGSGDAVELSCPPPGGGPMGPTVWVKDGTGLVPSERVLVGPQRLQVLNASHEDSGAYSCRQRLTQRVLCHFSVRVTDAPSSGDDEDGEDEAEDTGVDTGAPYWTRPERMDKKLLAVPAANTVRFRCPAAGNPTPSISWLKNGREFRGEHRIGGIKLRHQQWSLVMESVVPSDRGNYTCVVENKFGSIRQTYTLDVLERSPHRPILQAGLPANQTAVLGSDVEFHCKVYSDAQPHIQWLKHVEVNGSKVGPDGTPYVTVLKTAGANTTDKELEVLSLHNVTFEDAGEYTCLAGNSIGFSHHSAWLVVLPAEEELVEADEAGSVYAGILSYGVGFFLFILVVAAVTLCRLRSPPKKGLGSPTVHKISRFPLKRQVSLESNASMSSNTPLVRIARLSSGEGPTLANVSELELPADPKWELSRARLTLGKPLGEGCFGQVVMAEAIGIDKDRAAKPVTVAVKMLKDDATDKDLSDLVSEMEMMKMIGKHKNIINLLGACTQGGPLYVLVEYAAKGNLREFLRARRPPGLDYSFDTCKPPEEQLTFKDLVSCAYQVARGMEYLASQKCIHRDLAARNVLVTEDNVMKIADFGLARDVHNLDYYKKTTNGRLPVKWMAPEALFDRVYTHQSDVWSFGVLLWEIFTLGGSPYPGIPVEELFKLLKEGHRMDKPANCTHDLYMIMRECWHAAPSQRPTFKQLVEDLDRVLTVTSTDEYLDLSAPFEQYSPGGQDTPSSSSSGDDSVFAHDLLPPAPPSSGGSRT
T2 sequence (P35968 20-1356): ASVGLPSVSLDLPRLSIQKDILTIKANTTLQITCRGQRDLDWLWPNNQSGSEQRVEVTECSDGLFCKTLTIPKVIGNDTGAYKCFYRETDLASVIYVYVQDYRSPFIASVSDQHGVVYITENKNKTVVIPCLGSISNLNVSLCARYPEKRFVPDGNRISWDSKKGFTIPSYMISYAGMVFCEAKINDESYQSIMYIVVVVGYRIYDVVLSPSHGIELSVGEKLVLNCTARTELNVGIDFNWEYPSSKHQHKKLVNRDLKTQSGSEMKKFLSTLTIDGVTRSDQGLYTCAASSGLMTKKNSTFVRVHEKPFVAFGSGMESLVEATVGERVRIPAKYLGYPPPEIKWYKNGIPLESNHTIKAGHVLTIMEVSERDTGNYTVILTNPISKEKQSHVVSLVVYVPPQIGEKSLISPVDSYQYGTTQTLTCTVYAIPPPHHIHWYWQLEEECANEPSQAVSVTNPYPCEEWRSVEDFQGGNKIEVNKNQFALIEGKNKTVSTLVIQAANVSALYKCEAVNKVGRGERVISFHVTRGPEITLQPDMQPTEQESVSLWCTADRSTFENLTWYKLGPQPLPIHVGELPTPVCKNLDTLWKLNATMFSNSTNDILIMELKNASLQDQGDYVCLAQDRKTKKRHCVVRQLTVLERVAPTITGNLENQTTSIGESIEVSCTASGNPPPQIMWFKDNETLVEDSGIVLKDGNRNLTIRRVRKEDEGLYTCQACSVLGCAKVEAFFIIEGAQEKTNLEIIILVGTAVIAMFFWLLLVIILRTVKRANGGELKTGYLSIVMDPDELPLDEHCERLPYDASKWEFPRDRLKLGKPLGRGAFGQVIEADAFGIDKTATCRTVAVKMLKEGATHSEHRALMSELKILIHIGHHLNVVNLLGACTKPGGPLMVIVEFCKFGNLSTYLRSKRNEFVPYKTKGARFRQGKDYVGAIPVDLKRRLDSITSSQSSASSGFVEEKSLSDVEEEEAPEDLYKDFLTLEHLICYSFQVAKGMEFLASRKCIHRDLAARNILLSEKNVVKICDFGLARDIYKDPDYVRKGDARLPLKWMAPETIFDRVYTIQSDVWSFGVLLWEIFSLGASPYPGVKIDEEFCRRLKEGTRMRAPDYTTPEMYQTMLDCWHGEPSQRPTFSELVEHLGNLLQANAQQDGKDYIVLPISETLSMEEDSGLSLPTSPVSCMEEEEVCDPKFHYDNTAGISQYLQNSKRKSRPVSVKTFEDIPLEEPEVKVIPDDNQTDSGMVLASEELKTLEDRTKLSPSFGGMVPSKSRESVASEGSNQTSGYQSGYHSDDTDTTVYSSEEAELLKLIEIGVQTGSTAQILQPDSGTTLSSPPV

For `COCCON=Cc1ccn2c(-c3cccc(NC(=O)NCC(F)(F)F)c3)cnc2c1` [Compound 1-1, 1-(3-{7-[(2-Methoxy-ethoxyimino)-methyl]-imidazo[1,2-a]pyridin-3-yl}-phenyl)-3-(2,2,2-trifluoro-ethyl)-urea], the IC50 came out at 0.0194 µM at FGFR3, 0.635 µM at VEGFR2 and 310 nM in experiment [1]. Besides, the GI50 on Ba/F3-TEL-FGFR3 cells is 210 nM.

For `COCCOCCON=Cc1ccn2c(-c3cccc(NC(=O)NCC(F)(F)F)c3)cnc2c1` [Compound 1-2, 1-[3-(7-{[2-(2-Methoxy-ethoxy)-ethoxyimino]-methyl}-imidazo[1,2-a]pyridin-3-yl)-phenyl]-3-(2,2,2-trifluoro-ethyl)-urea], the results for the IC50 (at FGFR3; on VEGFR2; in experiment [1]) were 0.019 µM, 0.885 µM and 1600 nM, respectively. At Ba/F3-TEL-FGFR3 cells, the GI50 stood at 290 nM.

As to `O=C(NCC(F)(F)F)Nc1cccc(-c2cnc3cc(C=NOCCCN4CCOCC4)ccn23)c1` [Compound 1-3, 1-(3-{7-[(3-Morpholin-4-yl-propoxyimino)-methyl]-imidazo[1,2-a]pyridin-3-yl}-phenyl)-3-(2,2,2-trifluoro-ethyl)-urea], the IC50 at FGFR3 was 0.018 µM; at VEGFR2, 0.682 µM; in experiment [1], 2800 nM. The GI50 on Ba/F3-TEL-FGFR3 cells came out at 310 nM.

With `O=C(NCC(F)(F)F)Nc1cccc(-c2cnc3cc(C=NOCc4ccncc4)ccn23)c1` [Compound 1-4, 1-(3-{7-[(Pyridin-4-ylmethoxyimino)-methyl]-imidazo[1,2-a]pyridin-3-yl}-phenyl)-3-(2,2,2-trifluoro-ethyl)-urea], the results for the IC50 (at FGFR3; on VEGFR2; in experiment [1]) were 0.014 µM, 0.23 µM and 5300 nM, respectively. Also, the GI50 at Ba/F3-TEL-FGFR3 cells is 260 nM.

Take `O=C(NCC(F)(F)F)Nc1cccc(-c2cnc3cc(C=NOc4ncccn4)ccn23)c1` [Compound 1-5, 1-(3-{7-[(Pyrimidin-2-yloxyimino)-methyl]-imidazo[1,2-a]pyridin-3-yl}-phenyl)-3-(2,2,2-trifluoro-ethyl)-urea]: the IC50 came out at 0.0313 µM at FGFR3 and 0.877 µM on VEGFR2. Further, the inhibition at 10 µM in experiment [1] (Mus musculus) was determined as 10%. On Ba/F3-TEL-FGFR3 cells, the GI50 was determined as 2300 nM.

Take `O=C(NCC(F)(F)F)Nc1cccc(-c2cnc3cc(C=NOCc4ccccn4)ccn23)c1` [Compound 1-6, 1-(3-{7-[(Pyridin-2-ylmethoxyimino)-methyl]-imidazo[1,2-a]pyridin-3-yl}-phenyl)-3-(2,2,2-trifluoro-ethyl)-urea]: the IC50 stood at 0.013 µM at FGFR3 and 0.48 µM at VEGFR2.

With `O=C(NCC(F)(F)F)Nc1cccc(-c2cnc3cc(C=NOCCOCCO)ccn23)c1` [Compound 1-7, 1-[3-(7-{[2-(2-Hydroxy-ethoxy)-ethoxyimino]-methyl}-imidazo[1,2-a]pyridin-3-yl)-phenyl]-3-(2,2,2-trifluoro-ethyl)-urea], the IC50 on FGFR3 came out at 0.0185 µM; at VEGFR2, 0.584 µM. For the same molecule, the inhibition at 3 µM in experiment [1] (Mus musculus, % at 3.00 μM) stood at 20%. Besides, the GI50 at Ba/F3-TEL-FGFR3 cells worked out at 420 nM.

Turning to `O=C(NCC(F)(F)F)Nc1cccc(-c2cnc3cc(C=NOCc4ccc(Cl)s4)ccn23)c1` [Compound 1-8, 1-(3-{7-[(5-Chloro-thiophen-2-ylmethoxyimino)-methyl]-imidazo[1,2-a]pyridin-3-yl}-phenyl)-3-(2,2,2-trifluoro-ethyl)-urea], the IC50 at FGFR3 is 0.215 µM; on VEGFR2 it was over 10 µM; in experiment [1], 828 nM. The GI50 at Ba/F3-TEL-FGFR3 cells was found to be 17.5 nM.

Take `Cc1nc(CON=Cc2ccn3c(-c4cccc(NC(=O)NCC(F)(F)F)c4)cnc3c2)cs1` [Compound 1-9, 1-(3-{7-[(2-Methyl-thiazol-4-ylmethoxyimino)-methyl]-imidazo[1,2-a]pyridin-3-yl}-phenyl)-3-(2,2,2-trifluoro-ethyl)-urea]: the IC50 on FGFR3 was found to be 0.014 µM; on VEGFR2, 0.68 µM.

Turning to `CN1CCC(ON=Cc2ccn3c(-c4cccc(NC(=O)NCC(F)(F)F)c4)cnc3c2)CC1` [Compound 1-10, 1-(3-{7-[(1-Methyl-piperidin-4-yloxyimino)-methyl]-imidazo[1,2-a]pyridin-3-yl}-phenyl)-3-(2,2,2-trifluoro-ethyl)-urea], the IC50 at FGFR3 worked out at 0.019 µM; on VEGFR2, 0.27 µM; in experiment [1] it was 2800 nM. Also, the GI50 at Ba/F3-TEL-FGFR3 cells is 140 nM.

Take `O=C(NCC(F)(F)F)Nc1cccc(-c2cnc3cc(C=NOCC4CC4)ccn23)c1` [Compound 1-11, 1-{3-[7-(Cyclopropylmethoxyimino-methyl)-imidazo[1,2-a]pyridin-3-yl]-phenyl}-3-(2,2,2-trifluoro-ethyl)-urea]: the values for the IC50 (at FGFR3; in experiment [1]) were 0.027 µM and 880 nM, respectively. The inhibition at 1 µM at VEGFR2 (1 h, % I at 1 μM) is 46%. In addition, the GI50 on Ba/F3-TEL-FGFR3 cells amounted to 600 nM.

For the molecule `Cc1noc(C)c1CON=Cc1ccn2c(-c3cccc(NC(=O)NCC(F)(F)F)c3)cnc2c1` [Compound 1-12, 1-(3-{7-[(3,5-Dimethyl-isoxazol-4-ylmethoxyimino)-methyl]-imidazo[1,2-a]pyridin-3-yl}-phenyl)-3-(2,2,2-trifluoro-ethyl)-urea], the IC50 at FGFR3 amounted to 0.018 µM; at VEGFR2, 0.54 µM. Also, the inhibition at 10 µM in experiment [1] (Mus musculus) came to 38%. For the same molecule, the GI50 at Ba/F3-TEL-FGFR3 cells is 240 nM.

`Cc1cc(CON=Cc2ccn3c(-c4cccc(NC(=O)NCC(F)(F)F)c4)cnc3c2)n(C)n1` [Compound 1-13, 1-(3-{7-[(2,5-Dimethyl-2H-pyrazol-3-ylmethoxyimino)-methyl]-imidazo[1,2-a]pyridin-3-yl}-phenyl)-3-(2,2,2-trifluoro-ethyl)-urea]: the IC50 on FGFR3 was found to be 0.03 µM; on VEGFR2, 0.66 µM. Besides, the inhibition at 1 µM in experiment [1] (Mus musculus, % at 1.00 μM) was determined as 46%. Moreover, the GI50 at Ba/F3-TEL-FGFR3 cells was 300 nM.

Turning to `Cn1cncc1CO/N=C/c1ccn2c(-c3cccc(NC(=O)NCC(F)(F)F)c3)cnc2c1` [Compound 1-20, 1-(3-{7-[(3-Methyl-3H-imidazol-4-ylmethoxyimino)-methyl]-imidazo[1,2-a]pyridin-3-yl}-phenyl)-3-(2,2,2-trifluoro-ethyl)-urea], the IC50 on FGFR3 is 0.0071 µM; on VEGFR2, 0.36 µM.

Regarding `CO/N=C(\C)c1ccn2c(-c3cccc(NC(=O)NCC(F)(F)F)c3)cnc2c1` [Compound 1-22], the IC50 on FGFR3 amounted to 0.0051 µM; on VEGFR2, 0.092 µM.

Take `COCCN(C)CCON=Cc1ccn2c(-c3cccc(NC(=O)NCC(F)(F)F)c3)cnc2c1` [Compound 1-40, 1-{3-[7-({2-[(2-Methoxy-ethyl)-methyl-amino]-ethoxyimino}-methyl)-imidazo[1,2-a]pyridin-3-yl]-phenyl}-3-(2,2,2-trifluoro-ethyl)-urea]: the IC50 at FGFR3 amounted to 0.028 µM; at VEGFR2, 0.72 µM.

Turning to `C/C(=N\OCCCN1CCOCC1)c1ccn2c(-c3cccc(NC(=O)NCC(F)(F)F)c3)cnc2c1` [Compound 1-44, 1-[3-(7-{1-3-Morpholin-4-yl-propoxyimino-ethyl}-imidazo[1,2-a]pyridin-3-yl)-phenyl]-3-(2,2,2-trifluoro-ethyl)-urea], the IC50 on FGFR3 was 0.0038 µM; at VEGFR2 it was 0.059 µM.

Consider `CC(C)Oc1cc(NC(=O)NCC(F)(F)F)cc(-c2cnc3cc(/C(=N\OCCO)C4CC4)ccn23)c1` [Compound 1-64, 1-[3-(7-{Cyclopropyl-[(Z)-2-hydroxyethoxyimino]-methyl}-imidazo[1,2-a]pyridin-3-yl)-5-isopropoxy-phenyl]-3-(2,2,2-trifluoro-ethyl)-urea], for which the results for the IC50 at FGFR3 and on VEGFR2 were 0.03 µM and 1.2 µM, respectively. Further, the GI50 on Ba/F3-TEL-FGFR3 cells came out at 500 nM.

For the origin of these results see patent US8481531B2, “Bicyclic heterocyclyl derivatives as FGFR kinase inhibitors for therapeutic use” (Astex Therapeutics Ltd, priority 2009, dated 2013).
